Several values for one entry are separate records, joined by “and”; a condition that tells them apart may be missing. Equal entries are not always repeated. Where two headings read alike, the source gives them in different places.

Data set [1] has as its target B. subtilis DNA polymerase III (Bacillus subtilis, UniProt P13267). Put plainly: inhibition of DNA polymerase III by micellarly included Hg(CN)2 and Hg(CN)2 ascorbate. In kind it is biochemical. As to conditions: micellarly included Hg(CN)2 / Hg(CN)2 ascorbate in the tenside named. On the procedure:
Analogously to example 2 10 mg Hg(CN)2 and 40 mg Na ascorbate at pH 7.0 are dissolved in 10 ml phosphate buffer. The suspension is subjected to an ultrasonic treatment at 0° C. for 5 min, slowly heated to 20° C. and centrifuged to a 10% (^w /w) linear glycerol gradient in a preparative ultracentrifuge at 1000 xg for 6 hours (20° C., Polyalomer tubes).
The inhibitor concentrations are given in 50% of the complete inhibition. The assay which was used is that according to Clements, J; D'Ambrosio, J; Brown, N.C; J.Biol.Chem. (1975) 250, 522 and Wright, G.E.; Brown, N.C; Biochem. Biophys. Acta (1976) 432, 37.

A further data set deals with fungus. The data set can be described thus: antifungal effect in combination with N-tensides. To be noted: combination with N+ tensides of formula I and II.
Data set [2] has as its system influenza virus, subgroup A2; Herpes simplex virus HSV I-III. The class given is cell-based. As to conditions: monolayer cells infected with Herpes simplex virus type 1 or influenza virus type A2; with N+-tensides of formula I and II.
Data set [3] is described as follows: critical micellization concentration (cmc). The class given is physicochemical.
The test system of data set [4] is influenza A strains. As to conditions: amantadine on its own, in vitro; cited from earlier work.
The subject of another data set is influenza virus type B. Put plainly: inhibition of influenza B in vitro. The class given is cell-based. On the procedure: Amantadine (1-adamantanamine-HCl) has a particular pharmadynamic action against influenza viruses (class A). The replication of most influenza A strains is inhibited in vitro between 0.2-0.6 μg/ml. Micellarly included amantadine in cationic micelles, in particular of the form (Het≡N--(CH2)x --CH3)Y⊖, effect a reduction of the concentration of pharmaceutical active substance to 0.05 μg/ml amantadine, measured by Hayden et al. (Plaque inhibition assay for drug susceptibility resting of influenza viruses. Antimicrob. Ag. Chemother. 1980, 17: […]; Grunert et al.; Sensitivity of influenza A/New Jersey 18/76/(Hswl-Nl) virus to amantadine HCl, J. Inf. Dis. 1977, 136, 297-300).
With a concentration of 0.01% by weight of amantadine for influenza virus type B corresponding to a concentration of 0.5 μg/ml pharmaceutical active substance in vitro.

For data set [5], the system named is influenza A strains. The class given is cell-based, influenza virus type A.
A further data set concerns influenza A virus. In kind it is cell-based.
Data set [6] in a line: hydrodynamic (Stokes) radius / size of micelles and vesicles, inelastic light scattering. The class given is physicochemical.
The test system of another data set is pyrimidine biosynthesis. The data set can be described thus: pyrimidine biosynthesis. To be noted: micellarly included.
The target in the next data set is T1, adenosine-desaminase (Homo sapiens, UniProt P00813).
T1 sequence (P00813 1-363): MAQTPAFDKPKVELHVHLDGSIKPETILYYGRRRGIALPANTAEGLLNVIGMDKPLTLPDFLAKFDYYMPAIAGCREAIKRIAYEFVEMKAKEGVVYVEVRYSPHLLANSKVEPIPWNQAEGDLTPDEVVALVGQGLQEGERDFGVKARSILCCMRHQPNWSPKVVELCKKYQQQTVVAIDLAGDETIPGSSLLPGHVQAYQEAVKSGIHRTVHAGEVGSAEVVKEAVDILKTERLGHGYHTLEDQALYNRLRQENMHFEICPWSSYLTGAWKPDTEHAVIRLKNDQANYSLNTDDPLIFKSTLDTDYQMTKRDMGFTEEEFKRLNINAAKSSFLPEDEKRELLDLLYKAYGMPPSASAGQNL
The data set can be described thus: antitumor activity of micellarly dissolved adenosine-desaminase inhibitors. As to conditions: dissolved micellarly according to formula I and II.

The nature of data set [7]: micellar incorporation of active substances by dialysis, extinction at 260 nm. As to conditions: hexadecylpyridinium chloride micelles, 20° C., pH 5.5. The class given is physicochemical.
A further data set relates to salivary secretion. To be noted: in vivo.

B. subtilis DNA polymerase III, sequence (P13267 whole entry): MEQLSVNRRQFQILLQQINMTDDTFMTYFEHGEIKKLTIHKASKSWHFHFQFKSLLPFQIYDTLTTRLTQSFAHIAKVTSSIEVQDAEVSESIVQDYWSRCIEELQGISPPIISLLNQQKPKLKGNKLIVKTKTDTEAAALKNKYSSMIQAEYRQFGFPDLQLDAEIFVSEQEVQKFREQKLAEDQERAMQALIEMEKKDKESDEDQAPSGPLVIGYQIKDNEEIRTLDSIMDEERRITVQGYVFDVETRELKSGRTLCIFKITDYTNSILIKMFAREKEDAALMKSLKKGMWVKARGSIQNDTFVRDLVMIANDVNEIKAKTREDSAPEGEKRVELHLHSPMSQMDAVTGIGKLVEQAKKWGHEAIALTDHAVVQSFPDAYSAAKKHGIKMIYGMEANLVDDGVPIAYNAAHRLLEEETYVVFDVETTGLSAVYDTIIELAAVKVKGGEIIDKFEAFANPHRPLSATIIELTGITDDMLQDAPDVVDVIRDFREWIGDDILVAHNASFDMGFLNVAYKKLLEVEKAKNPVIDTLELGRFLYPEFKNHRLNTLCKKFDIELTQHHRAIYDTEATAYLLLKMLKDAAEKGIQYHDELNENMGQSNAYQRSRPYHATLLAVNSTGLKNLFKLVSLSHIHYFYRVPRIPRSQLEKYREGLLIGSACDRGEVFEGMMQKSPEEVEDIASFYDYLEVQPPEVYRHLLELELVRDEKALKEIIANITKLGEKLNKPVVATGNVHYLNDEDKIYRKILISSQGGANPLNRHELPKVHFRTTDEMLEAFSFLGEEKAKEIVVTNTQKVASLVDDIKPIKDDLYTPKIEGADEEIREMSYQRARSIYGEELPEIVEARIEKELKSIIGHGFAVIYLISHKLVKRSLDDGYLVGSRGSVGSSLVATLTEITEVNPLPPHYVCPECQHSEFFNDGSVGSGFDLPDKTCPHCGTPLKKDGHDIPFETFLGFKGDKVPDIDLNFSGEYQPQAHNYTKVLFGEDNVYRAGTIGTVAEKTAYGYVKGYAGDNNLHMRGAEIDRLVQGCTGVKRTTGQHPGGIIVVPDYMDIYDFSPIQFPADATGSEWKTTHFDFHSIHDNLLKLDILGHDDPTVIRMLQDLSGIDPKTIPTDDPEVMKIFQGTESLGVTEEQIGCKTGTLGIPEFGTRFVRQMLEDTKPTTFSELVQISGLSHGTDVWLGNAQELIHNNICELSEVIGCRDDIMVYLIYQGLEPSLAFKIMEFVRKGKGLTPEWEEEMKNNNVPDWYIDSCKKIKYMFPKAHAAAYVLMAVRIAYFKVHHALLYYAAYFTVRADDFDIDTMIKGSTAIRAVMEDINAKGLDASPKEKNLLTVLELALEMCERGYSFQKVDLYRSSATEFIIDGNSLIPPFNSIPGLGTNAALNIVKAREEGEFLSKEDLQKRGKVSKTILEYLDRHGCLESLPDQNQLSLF

For 8-Ketohexadecylpyridinium, the competitive with result in [1] is “dGTP”.

For `Clc1ccccc1C(c1ccccc1)(c1ccccc1)n1ccnc1` [clotrimazole], the “intensification of the antifungal effect by N+ tensides” value (“intensification … by N+ tensides” below) with fungus is “≈ 35%”.

In the case of “3-[[(Dimethylamino)-carboxyl]oxyl]-1-hexadecyl-pyridinium”, in [1], the competitive with entry is reported as “dATP”.

For the molecule `Nc1ccn([C@@H]2O[C@H](CO)[C@@H](O)[C@@H]2O)c(=O)n1` [cytarabine], the “lowering of the inhibition concentration compared with applications without quaternary ammonium bases” value in [2] is 30%.

For 3-Hexadecylthiazolium, in data set [3] (Table 2, HET≡N+-(CH2)x-CH3 Y-), the “cmc × 10^-6 M” value is reported as 0.91 × 10^-6 M.

On to 2,5-Dimethyl-3-hexadecyl-thiazolium, for which the “cmc × 10^-6 M” value in data set [3] (Table 2, HET≡N+-(CH2)x-CH3 Y-) was 15.00 × 10^-6 M.

3-Dodecyl-6-methyl-benzimidazolium: the “cmc × 10^-6 M” value in data set [3] (Table 2, HET≡N+-(CH2)x-CH3 Y-) is listed as 7.30 × 10^-6 M.

With `CCCCCCCCCCCCCCCCC(CCCCCCCCCCCCCCCC)c1cc[n+](C)cc1.[Cl-]` [4-(17-tritriacontyl)-N-methylpyridinium chloride], the competitive with result in [1] is listed as “dGTP”.

Turning to `Clc1ccc(COC(Cn2ccnc2)c2ccc(Cl)cc2Cl)cc1` (centres unmarked) [econazole], the “intensification … by N+ tensides” value in the data set on fungus is on record as “≈ 35%”.

3-Hexadecyl-6-methyl-benzimidazolium: in data set [3] (Table 2, HET≡N+-(CH2)x-CH3 Y-), the “cmc × 10^-6 M” value was 17.00 × 10^-6 M.

Regarding 3-Hexadecylbenzimidazolium, in [3] (Table 2, HET≡N+-(CH2)x-CH3 Y-), the “cmc × 10^-6 M” value is 6.70 × 10^-6 M.

`Cl.NC12CC3CC(CC(C3)C1)C2` [1-adamantaneamine HCl, 1-adamantanamine-HCl]: in the data set with influenza A strains [4], the “concentration inhibiting replication of most influenza A strains” value was 0.2 to 0.6 µg/mL. For the same molecule, the “activity against influenza virus type B” value with influenza virus type B (amantadine on its own) is reported as “practically no activity”. In addition, the “concentration showing inhibition of influenza virus type B” value in the data set with influenza virus type B (micellarly included in cationic tensides, 0.01% by weight of amantadine) turned out to be 0.5 µg/mL. Moreover, in the data set with influenza A strains [5], the “concentration of active substance for inhibition” value came to 0.05 µg/mL. Also, in the data set with influenza A virus, the “Inhibition, 10log (pfu/ml of the inhibitor)/(pfu/ml check)” value was -1.11 and the “Titration of infection, Plaque forming units” value is listed as 2 × 10^6.

As for `CCCCCCCCCCCCCCCC[n+]1ccnc(C(N)=O)c1` [2-Carboxamide-4-hexadecyl-1,4-diazinium], the “cmc × 10^-6 M” value in data set [3] (Table 2, HET≡N+-(CH2)x-CH3 Y-) is 0.30 × 10^-6 M.

In the case of 2-Carboxamid-3-hexadecyl-1,4-pyridinium, the “<RH> hydrodynamic radius” value in data set [6] (Table 3, counter ion Y- = NO3-) came out at 440 Å.

As to 4-Methyl- -2-hexadecyl-pyrazolium, the “cmc × 10^-6 M” value in [3] (Table 2, HET≡N+-(CH2)x-CH3 Y-) was 0.70 × 10^-6 M.

Turning to `CCCCCCCCCCCCCCCC[n+]1cc(C)c(O)cc1O` [2,-4-Dihydroxy-5-methyl-hexadecyl-pyridinium], the “<RH> hydrodynamic radius” value in [6] is 1000 and 1500.

On to “2-Hydroxy,6-amino-hexadecyl-pyrimidinium”, for which the “cmc × 10^-6 M” value in [3] (Table 2, HET≡N+-(CH2)x-CH3 Y-) is listed as 2.00 × 10^-6 M.

For the molecule “3,5-bis[n-hexadecyloxy-carbonyl]-N-methyl-pyridinium”, the competitive with result in data set [1] was “dGTP”.

“Cetyl-2,3-dihydroxy-propyl-hexadecyl-pyridinium”: in data set [6], the “<RH> hydrodynamic radius” value was 150.0 and 180.4 and 210.4 and 120.0.

Take Dodecyl-pyrimidinium: the “cmc × 10^-6 M” value in data set [3] (Table 2, HET≡N+-(CH2)x-CH3 Y-) is 1.20 × 10^-6 M.

For the molecule 2-carboxamid-3-dodecyl-1,4-pyridinium, the “<RH> hydrodynamic radius” value in data set [6] (Table 3, counter ion Y- = NO3-) was 366 Å.

For the molecule `CCCCCCCCCCCCCCCC[n+]1cc(F)c(O)cc1O` [2,-4-Dihydroxy-5-Fluoro hexadecyl-pyridinium], the “<RH> hydrodynamic radius” value in data set [6] is 210 and 150.

Consider `Clc1ccc(COC(Cn2ccnc2)c2ccc(Cl)cc2Cl)c(Cl)c1` (centres unmarked) [miconazole], for which the “intensification … by N+ tensides” value with fungus is listed as “≈ 35%”.

For the molecule `CC(N)C12CC3CC(CC(C3)C1)C2.Cl` (stereo not drawn) [rimantadine, α-methyl-1-adamantanemethylamine hydrochloride], the “dose with the same in vitro effect as the pure active substance” value in the data set with influenza A strains [5] is 0.05 µg/mL.

For the molecule `CCCCCCCCCCCC[n+]1csc2ccccc21` [3-Dodocyl-benzthiazolium], the “cmc × 10^-6 M” value in [3] (Table 2, HET≡N+-(CH2)x-CH3 Y-) was 10.90 × 10^-6 M.

5-Methyl-1-hexadecylimidazolium: in [3] (Table 2, HET≡N+-(CH2)x-CH3 Y-), the “cmc × 10^-6 M” value was 3.90 × 10^-6 M.

As to `O=c1[nH]c(=O)n([C@H]2C[C@H](O)[C@@H](CO)O2)cc1C(F)(F)F` [trifluorothymidine], the “lowering of the inhibition concentration compared with applications without quaternary ammonium bases” value in data set [2] was found to be 30%.

With Hexadecyl-pyrimidinium, the “cmc × 10^-6 M” value in [3] (Table 2, HET≡N+-(CH2)x-CH3 Y-) is 2.50 × 10^-6 M.

With 2,6-Dihydroxy-dodecyl-pyrimidinium, the “cmc × 10^-6 M” value in data set [3] (Table 2, HET≡N+-(CH2)x-CH3 Y-) is recorded as 1.90 × 10^-6 M.

On to `NC(=O)c1[nH]nc([C@@H]2O[C@H](CO)[C@@H](O)[C@H]2O)c1O` [pyrazofurine], for which, in the data set on pyrimidine biosynthesis, the “irreversible inhibition of pyrimidine biosynthesis” value is recorded as 20%.

Take erythro-9-(2-hydroxy-3-nonyl)-adenine: the “intensification of the antitumor activity” value at adenosine-desaminase is “tenfold”.

Regarding N-Hexadecyl-4-cetyl-imidazolinium, the “<RH> hydrodynamic radius” value in [6] is 100 and 150.

For `CCCCCCCCCCCC[n+]1ccccc1` [Dodecyl-pyridinium], the “cmc × 10^-6 M” value in [3] stood at 1.52.

Regarding Hexadecyl-4-Hydroxy-pyridinium, in data set [3] (Table 2, HET≡N+-(CH2)x-CH3 Y-), the “cmc × 10^-6 M” value is 0.95 × 10^-6 M.

Take `O=C(O)C[C@H](NC(=O)CP(=O)(O)O)C(=O)O` [N-(phosphonoacetyl)-aspartate]: the “intensification of the effect on pyrimidine biosynthesis (blocking of the carbamylation of aspartate)” value in the data set with pyrimidine biosynthesis was determined as 20 fold.

As for `O=c1[nH]c(=O)n([C@H]2C[C@H](O)[C@@H](CO)O2)cc1I` [Idoxuridine, idoxuridine], the “Yield (%) of micellar incorporation” value in data set [7] (Table 1 experiment 1, Trifluoroamame 5, Idoxuridine […]100 ml) was 95%; in data set [7] (Table 1 experiment 2, Trifluoroamame 7.5, Idoxuridine 10.5 mg/100 ml), 98%; in data set [7] (Table 1 experiment 3, Trifluoroamame 10.0, Idoxuridine 12.5 mg/100 ml), 98%; in [7] (Table 1 experiment 4, Trifluoroamame 12.0, Idoxuridine […]100 ml), 98%; in [7] (Table 1 experiment 5, Trifluoroamame 15.0, Idoxuridine 17.0 mg/100 ml), 97%; in data set [7] (Table 1 experiment 6, Trifluoroamame 17.0, Idoxuridine 20.0 mg/100 ml) it was 96%. Besides, the “Yield (%) of micellar incorporation” value in data set [7] (Table 1 experiment 7, Trifluoroamame 20.0, Idoxuridine 21.5 mg/100 ml) came out at 98%; in data set [7] (Table 1 experiment 8, Trifluoroamame 25.0, Idoxuridine 23.0 mg/100 ml), 100%; in [7] (Table 1 experiment 9, Trifluoroamame 30.0, Idoxuridine 24.0 mg/100 ml) it was 100%; in data set [7] (Table 1 experiment 10, Trifluoroamame 50.0, Idoxuridine 30.0 mg/100 ml) it was 100%. Also, in [2], the “lowering of the inhibition concentration compared with applications without quaternary ammonium bases” value was found to be 30%.

For the molecule `CN1[C@@H]2CC[C@H]1C[C@@H](OC(=O)C(CO)c1ccccc1)C2` (some centres unmarked) [atropine], the “intensification of the inhibitory effect on salivary secretion” value with salivary secretion was “tenfold”.

Turning to `CCCCCCCCCCCCCCCC[n+]1c(O)ncc(F)c1O` [2,6-Dihydroxy,5-Fluor,hexadecyl-pyrimidinium], in data set [3] (Table 2, HET≡N+-(CH2)x-CH3 Y-), the “cmc × 10^-6 M” value is given as 0.85 × 10^-6 M.

As for “3-Hexadecyl-5,6-dihydroxy-benzthiazolium”, the “cmc × 10^-6 M” value in [3] (Table 2, HET≡N+-(CH2)x-CH3 Y-) is 7.90 × 10^-6 M.

In the case of “2-Hydroxy,5-methyl,6-amino-hexadecyl-pyrimidinium”, the “cmc × 10^-6 M” value in data set [3] (Table 2, HET≡N+-(CH2)x-CH3 Y-) was 1.00 × 10^-6 M.

In the case of `CCCCCCCCCCCCCCCC[n+]1ccccc1.[Cl-]` [hexadecylpyridinium chloride, N-(n-hexadecyl)-pyridinium chloride, reference compound], the “RH (Å) (±5.0 Å)” value in [6] (pH 5.5) is 45.0 and 50.5 and 60.0 and 65.0 and 71.5 and 75.0 and 78.0.

(Values after US5045530A, “Pharmaceutical preparations” (priority 1986, dated 1991).)
